What is called AUC is concentration integrated over time. Low readings indicate less exposure, high ones more exposure. In general, AUC(0-inf) refers to total exposure, with the tail of the curve extrapolated. The low end stands for less exposure, the high end for more exposure. As usually defined, the Cmax is the maximum level reached in the sampled fluid or tissue. One may read the Tmax as the time from dosing to the highest level. Broadly, the half-life is the time in which the quantity being followed falls by half. The low end stands for fast loss, the high end for slow loss.

Results on 14 compounds are retold here after paper PMC11150675, “Simultaneous determination of multiple components in rat plasma by UPLC-MS/MS for pharmacokinetic studies after oral administration of Pogostemon cablin extract” (Frontiers in Pharmacology, 2024).

Where two headings read alike, the source gives them in different places.

Data set [1] in a line: PK study in rats after single oral administration of Pogostemon cablin (PC) extract, plasma analysed by UPLC-MS/MS. As to conditions: for detection in plasma after oral PC extract: no complete PK profile obtained; for shape of plasma concentration-time curve: Figure 2.
Protocol: (§1) The 100 μL plasma sample was combined with 20 μL of ME, 20 μL of IS (500 ng/mL), and 2.5 μL of FA, followed by vortexing for 1 min. This mixture underwent extraction with 600 μL ACN through vortexing at room temperature for 3 min. Subsequent to centrifugation at 14,000 rpm for a period of 10 min, the resulting supernatant was moved to another tube and dried under a stream of nitrogen. The dried residue was dissolved in 100 μL ME-ACN (50:50 v/v), followed by vortexing for 5 min, and subsequent centrifugation at 14,000 rpm for 10 min. Finally, 20 μL of the supernatant was used for analysis.
(§2) A concentration of 0.5 g/mL of PC extract was obtained by dissolving in 0.5% CMC-Na aqueous solution. The PC suspension of the 4.0 g/kg dose was given to rats by single oral administration. […] Subsequently, the plasma collected underwent centrifugation at a speed of 7000 rpm for a duration of 10 min. It was then moved to clean tubes and kept at a temperature of −80°C.
(§3) Data in this study was presented as the mean ± standard deviation (SD). The MassHunter Workstation software (version B.09.00, Agilent, United States) was utilized for determining the plasma levels of the 15 analytes. Additionally, PK parameters were analyzed using DAS 3.0 Software (Medical College of Wannan, China).
For data set [2] the following is noted: rat, in vivo, po, 4 g/kg.
Protocol: as §1, §2, §3
Where [3] appears, read: rat plasma, PC extract 4.0 g/kg oral.
The mark [4] stands for this setting: rat plasma, PC extract 4.0 g/kg single oral dose, n = 6.

For the compound `COc1cc(C(=O)O)ccc1O` [Vanillic acid, vanillic acid], in data set [1] (male, rat, plasma, po, 4 g/kg), the AUC stood at 1310 ng·h/mL, the AUC(0-inf) worked out at 1310 ng·h/mL, the Cmax was found to be 116 ± 36.8 ng/mL and the Tmax came out at 1.4 ± 1.4 h. Besides, the half-life in data set [1] (male, rat, plasma, po, 4 g/kg) is 2.5 ± 0.1 h.
For the compound `COc1cc(O)c2c(=O)c(OC)c(-c3ccc(OC)c(OC)c3)oc2c1` [Retusin, retusin], in data set [1] (male, rat, plasma, po, 4 g/kg), the AUC was determined as 92.2 ± 33 ng·h/mL, the AUC(0-inf) is 92.2 ± 33 ng·h/mL, the concentration peaked (Cmax) at 33 ± 14.6 ng/mL and the Tmax is 0.9 ± 0.6 h. Besides, the half-life in data set [1] (male, rat, plasma, po, 4 g/kg) is 1.5 ± 0.2 h.
Take `O=c1cc(-c2ccc(O)cc2)oc2cc(O[C@@H]3O[C@H](CO)[C@@H](O)[C@H](O)[C@H]3O)cc(O)c12` [Cosmosiin, cosmosiin]: the T1/2z in data set [2] came to 3.7 ± 0.6 h.
For `Cc1cc(O)c(C(=O)CCC(C)C)c(=O)o1` [Pogostone, pogostone], the “concentration maximum (Cmax)” value in data set [1] (setting [3]) is on record as 37204.0 ± 10,901.0 ng/mL. In data set [1] (setting [4]), the “AUC (0-tn)” value is 258294.0 ± 93,104.7 μg/L*h, the “AUC (0-∞)” value was found to be 258320.9 ± 93120.6 ng·h/mL, the Cmax was 37204.0 ± 10,901.0 μg/L and the T1/2z is on record as 0.8 ± 0.5 h. In addition, the Tmax in data set [1] (setting [4]) amounted to 1.9 ± 1.3 h. The “area-under-the-curve (AUC) compared with other constituents” value in data set [1] (rat plasma, PC extract oral) is “significantly exceeded that of the other constituents”.
As for `COc1cc(O)c2c(=O)c(O)c(-c3ccc(OC)c(O)c3)oc2c1` [Ombuin, ombuin], in data set [1] (setting [4]), the “AUC (0-tn)” value was found to be 95.1 ± 28.1 µg·h/L, the “AUC (0-∞)” value is 95.4 ± 28.4 ng·h/mL, the highest concentration (Cmax) came to 11.2 ± 1.5 ng/mL and the T1/2z stood at 3.8 ± 1.8 h. In data set [1] (setting [4]), the Tmax is 0.6 ± 0.2 h.
Consider `C[C@@H]1O[C@@H](O[C@@H]2[C@@H](O)[C@H](OCCc3ccc(O)c(O)c3)O[C@H](COC(=O)/C=C/c3ccc(O)c(O)c3)[C@H]2O)[C@H](O)[C@H](O)[C@H]1O` [Isoacteoside, isoacteoside], for which, in data set [1] (male, rat, plasma, po, 4 g/kg), the AUC turned out to be 384 ± 93.8 ng·h/mL, the AUC(0-inf) turned out to be 384 ± 93.8 ng·h/mL, the peak level (Cmax) was 109 ± 41.5 ng/mL and the Tmax came to 0.5 ± 0.3 h. Further, the half-life in data set [1] (male, rat, plasma, po, 4 g/kg) is 2.9 ± 0.3 h.
Take `O=c1c(O[C@@H]2O[C@H](CO)[C@H](O)[C@H](O)[C@H]2O)c(-c2ccc(O)c(O)c2)oc2cc(O)cc(O)c12` [Hyperoside, hyperoside]: the “detection in plasma after oral PC extract” value (“detection in plasma” for short) in data set [1] (setting [3]) is “only detected in the initial plasma samples”.
The same measure, in the same setting: in the case of `COc1ccc(-c2cc(=O)c3c(O)cc(O)cc3o2)cc1` [Acacetin, acacetin] it was “only detected in the initial plasma samples”.
Regarding `O=c1cc(-c2ccc(O)cc2)oc2c([C@@H]3O[C@H](CO)[C@@H](O)[C@H](O)[C@H]3O)c(O)c([C@@H]3O[C@H](CO)[C@@H](O)[C@H](O)[C@H]3O)c(O)c12` [Vicenin-2, vicenin-2], in data set [1] (setting [4]), the “AUC (0-tn)” value is 968.0 ± 131.9 µg·h/L, the “AUC (0-∞)” value worked out at 968.8 ± 132.9 ng·h/mL, the Cmax is 249.4 ± 50.8 ng/mL and the T1/2z worked out at 1.2 ± 0.6 h. For the same compound, in data set [1] (setting [4]), the time to peak (Tmax) was 0.3 ± 0.1 h.
Consider `COc1ccc(-c2cc(=O)c3c(O)cc(O[C@@H]4O[C@H](CO)[C@@H](O)[C@H](O)[C@H]4O)cc3o2)cc1O` [Diosmetin-7-O-β-D-glucopyranoside, diosmetin-7-O-β-D-glucopyranoside], for which, in data set [1] (setting [3]), the “detection in plasma” value is reported as “only detected in the initial plasma samples”.
Take `C[C@@H]1O[C@@H](O[C@@H]2[C@@H](O)[C@H](OCCc3ccc(O)c(O)c3)O[C@H](CO)[C@H]2OC(=O)/C=C/c2ccc(O)c(O)c2)[C@H](O)[C@H](O)[C@H]1O` [Verbascoside, verbascoside]: in data set [1] (male, rat, plasma, po, 4 g/kg), the area under the curve (AUC) was determined as 1700 ± 394 ng·h/mL, the AUC(0-inf) stood at 1700 ± 394 ng·h/mL, the Cmax was 554 ± 159 ng/mL and the Tmax amounted to 0.4 ± 0.3 h. This compound gave a half-life in data set [1] (male, rat, plasma, po, 4 g/kg) of 2.6 ± 0.21 h.
Turning to `COc1cc(O)c2c(=O)c(OC)c(-c3ccc(O)c(OC)c3)oc2c1` [Pachypodol, pachypodol], in data set [1] (male, rat, plasma, po, 4 g/kg), the area under the curve (AUC) came to 243 ± 63.5 ng·h/mL, the area under the curve AUC(0-inf) was 243 ± 63.5 ng·h/mL, the peak level (Cmax) was 47.8 ± 15.9 ng/mL and the time of peak concentration (Tmax) stood at 0.8 ± 0.2 h. This compound showed a half-life in data set [1] (male, rat, plasma, po, 4 g/kg) of 2 ± 0.1 h. The “shape of plasma concentration-time curve” value in data set [1] (rat plasma, PC extract oral) is “double-peak phenomenon”.
Take `O=c1cc(-c2ccc(O)cc2)oc2cc(O)cc(O)c12` [Apigenin, apigenin]: in data set [1] (male, rat, plasma, po, 4 g/kg), the AUC was determined as 255 ± 65.5 ng·h/mL, the AUC(0-inf) amounted to 255 ± 65.5 ng·h/mL, the Cmax was found to be 64.2 ± 15.8 ng/mL and the time to peak (Tmax) turned out to be 0.3 ± 0.2 h. Further, in data set [1] (male, rat, plasma, po, 4 g/kg), the half-life was 2.7 ± 0.6 h. Moreover, the “shape of plasma concentration-time curve” value in data set [1] (rat plasma, PC extract oral) was “double-peak phenomenon”.
Consider `O=c1cc(-c2ccc(O)cc2)oc2c([C@@H]3O[C@H](CO)[C@@H](O)[C@H](O)[C@H]3O)c(O)cc(O)c12` [Vitexin, vitexin], for which the “detection in plasma” value in data set [1] (setting [3]) was “only detected in the initial plasma samples”.
